Series [1] deals with noreinephrine (NE) transporter (Homo sapiens, UniProt P23975). Kind of series: in vitro binding affinity, norepinephrine transporter. Conditions: in vitro studies.
In series [2] the test system is mice. As to the kind of experiment: conditioned place preference assay (CPP). Type of series: in vivo. Here is the method: The conditioned place preference assay (CPP) is one test commonly used to show the ability of an antagonist to block rewarding effects in mice. Referring now to FIGS. 1a-b, according to the CPP test mice are placed in an apparatus with two chambers that differ in both visual and tactile cues. Over the course of a one-week training period, a rewarding drug (e.g.—cocaine) is administered once daily exclusively in one chamber so as to allow animals to associate the cues of that chamber with the drug. Sterile water is administered once daily while the animals occupy the opposite chamber to control for non-drug effects. At the conclusion of the training period, animals are allowed free access to both chambers and the time spent in each chamber is measured electronically. It is well known that addictive substances increase the amount of time animals spend in the drug-paired chamber, in the absence of any intervention.
Moreover, additional testing was performed to control for effects of MI-4 on general behavioral activity, an essential consideration when interpreting results from locomotor-based behavioral paradigms such as the CPP test.

Series [3] deals with mice. As to the kind of experiment: tail suspension test (TST). Type of series: in vivo. An excerpt: Referring now to FIGS. 5a-d, the tail suspension test (TST) and forced swim test (FST) are well-established, prototypical rodent models of learned helplessness. […] These assays are based on the premise that helpless or “depressed” animals struggle less to escape the mild but inescapable stress of being suspended or being immersed in room temperature water. […] In the TST, standard laboratory tape is used to immobilize an animal by its tail to a fixed support approximately 10.5 inches above a surface. The duration of the test is six minutes during which time animal movement is videotaped and later scored for immobility time (in sec) by a blinded observer. Similarly, in the FST animals are immersed in approximately 10 cm of 25° C. water in a 20 cm×13 cm glass cylinder. Animals were tested for 5 min and behavior was videotaped and scored for immobility time (sec) by a blinded observer.

The test system of series [4] is mice. Kind of series: locomotor activity (Opto-Varimax 4 Activity Analyzer). The series is classed as in vivo. The method, then:
Referring now to FIGS. 2a-d, locomotor activity was assessed in a non-invasive manner using a Opto-Varimax 4 Activity Analyzer (Columbus Instruments, Columbus, Ohio) that measures animal activity in a cage intersected with photocells projecting infrared beams 2.5 cm apart and 2 cm above the floor. After a brief habituation period, animals were treated with either sterile water as vehicle or MI-4 and activity was measured for 20 min.

The subject of series [5] is mice. As to the kind of experiment: open field test, time spent in center. The series is classed as in vivo. Conditions: FIG. 3. The source says:
Anxiety disorders are often co-morbid with depression and antidepressant drugs are used in the treatment of anxiety. Tests for anxiety in rodents, such as the open field test, make use of the aversion of the animals for exposed locations. Treatment with anxiolytics such as diazepam or fluoxetine increases the amount of time an animal will spend in the center of the open field. We used the Opto-Varimax 4 Activity Analyzer to assess the time animals spent in the center of the open field vs. the periphery after treatment with MI-4. Data were measured as time spent in center (TIC).

Series [6] concerns rodents. To be noted: doses less than 100 mg/kg, i.p.; cited from earlier work.
Series [7] addresses dopamine (DA) transporter (Homo sapiens, UniProt Q01959). As to the kind of experiment: in vitro binding affinity, dopamine transporter. Conditions: in vitro studies.
Series [8] has as its target serotonin (5-HT) transporter (Homo sapiens, UniProt P31645). Kind of series: in vitro binding affinity, serotonin transporter. To be noted: in vitro studies.
The conditions of series [9]: human subjects, cited from earlier work.
The mark [10] stands for this setting: intravenous administration for up to 72 hours.

Where two headings read alike, the source gives them in different places.

serotonin (5-HT) transporter, sequence (P31645 whole entry): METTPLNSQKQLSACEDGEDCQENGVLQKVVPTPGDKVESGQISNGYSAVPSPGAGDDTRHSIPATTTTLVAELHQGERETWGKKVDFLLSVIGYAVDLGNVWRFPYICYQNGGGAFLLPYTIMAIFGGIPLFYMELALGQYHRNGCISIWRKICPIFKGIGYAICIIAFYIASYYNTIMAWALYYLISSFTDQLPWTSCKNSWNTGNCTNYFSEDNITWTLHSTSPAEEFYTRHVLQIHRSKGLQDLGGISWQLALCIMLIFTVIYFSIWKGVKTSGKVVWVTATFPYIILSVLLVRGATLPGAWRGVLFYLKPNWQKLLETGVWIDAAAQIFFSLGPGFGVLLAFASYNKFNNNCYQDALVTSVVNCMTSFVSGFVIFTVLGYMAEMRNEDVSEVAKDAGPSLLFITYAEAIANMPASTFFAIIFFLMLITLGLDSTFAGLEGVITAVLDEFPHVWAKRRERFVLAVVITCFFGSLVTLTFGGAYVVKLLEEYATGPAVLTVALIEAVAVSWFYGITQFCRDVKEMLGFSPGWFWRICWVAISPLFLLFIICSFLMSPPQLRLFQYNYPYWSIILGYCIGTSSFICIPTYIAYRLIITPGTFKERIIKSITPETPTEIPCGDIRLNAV
noreinephrine (NE) transporter, sequence (P23975 whole entry): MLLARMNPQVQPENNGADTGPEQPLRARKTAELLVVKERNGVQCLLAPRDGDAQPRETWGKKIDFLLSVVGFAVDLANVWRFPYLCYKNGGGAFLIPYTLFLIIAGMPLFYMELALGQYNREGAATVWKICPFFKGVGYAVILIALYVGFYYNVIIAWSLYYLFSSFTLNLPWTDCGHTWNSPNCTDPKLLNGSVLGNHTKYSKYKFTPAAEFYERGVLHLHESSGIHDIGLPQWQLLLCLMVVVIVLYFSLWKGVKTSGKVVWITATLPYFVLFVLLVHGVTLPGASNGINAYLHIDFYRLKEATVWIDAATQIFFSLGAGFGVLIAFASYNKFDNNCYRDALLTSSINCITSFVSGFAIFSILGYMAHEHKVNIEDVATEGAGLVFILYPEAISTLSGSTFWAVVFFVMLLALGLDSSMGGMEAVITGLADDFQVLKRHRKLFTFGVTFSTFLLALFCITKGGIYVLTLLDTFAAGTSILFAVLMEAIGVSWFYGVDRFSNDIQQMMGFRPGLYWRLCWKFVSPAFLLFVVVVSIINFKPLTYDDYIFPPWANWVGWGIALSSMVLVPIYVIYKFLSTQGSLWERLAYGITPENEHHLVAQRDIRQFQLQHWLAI
dopamine (DA) transporter, sequence (Q01959 whole entry): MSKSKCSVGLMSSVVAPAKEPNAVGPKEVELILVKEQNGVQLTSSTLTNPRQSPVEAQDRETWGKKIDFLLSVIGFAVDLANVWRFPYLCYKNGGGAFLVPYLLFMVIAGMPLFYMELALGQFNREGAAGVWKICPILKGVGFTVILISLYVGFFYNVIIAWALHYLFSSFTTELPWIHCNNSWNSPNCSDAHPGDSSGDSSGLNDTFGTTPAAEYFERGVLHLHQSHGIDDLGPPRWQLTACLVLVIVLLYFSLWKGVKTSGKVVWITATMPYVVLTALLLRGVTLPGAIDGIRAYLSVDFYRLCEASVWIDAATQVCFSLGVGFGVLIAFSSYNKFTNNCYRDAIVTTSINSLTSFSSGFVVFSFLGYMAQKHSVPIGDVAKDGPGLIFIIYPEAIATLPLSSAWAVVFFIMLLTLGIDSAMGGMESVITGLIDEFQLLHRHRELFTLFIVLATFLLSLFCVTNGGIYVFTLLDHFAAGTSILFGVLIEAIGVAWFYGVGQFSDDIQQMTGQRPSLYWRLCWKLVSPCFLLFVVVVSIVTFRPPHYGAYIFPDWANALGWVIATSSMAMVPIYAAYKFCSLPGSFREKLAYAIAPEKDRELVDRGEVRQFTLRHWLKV

Consider `C[C@@H](CN1CCC(Cc2ccccc2)CC1)[C@@H](O)c1ccc(O)cc1` (relative stereo) [MI-4, ([R-(R*,S*)]-α-(4-Hydroxyphenyl)-β-methyl-4-(phenylmethyl)-1-piperidinepropanol], for which, in series [1], the “binding affinity for the noreinephrine (NE) transporter” value is reported as “physiologically-relevant binding affinity”. In [2] (MI-4 10/mg/kg i.p. co-administered with cocaine 10 mg/kg i.p., FIG. 1b), the “effect of cocaine on time in drug-paired chamber when co-administered” value is on record as “reduced by half”. Moreover, the “rewarding effects when administered alone (time spent in the MI-4-paired chamber)” value in series [2] (administered alone at the same dose (10/mg/kg, i.p.)) is “did not exhibit rewarding effects”. Besides, the “immobility time in the TST” value in series [3] (six minute test, FIG. 5a, comparable in effect to fluovoxamine and desipramine) is on record as “dose-dependent reduction in immobility time”. Also, the distance traveled entry in series [4] (MI-4 vs sterile water vehicle, 20 min, FIG. 2a) is reported as “only minor effects”. The ambulatory time result in series [4] (MI-4 vs sterile water vehicle, 20 min, FIG. 2b) is “only minor effects”. The “stereotopy time (grooming behavior)” value in [4] (MI-4 vs sterile water vehicle, 20 min, FIG. 2c) was “did not significantly alter”. Besides, the resting time entry in series [4] (MI-4 vs sterile water vehicle, 20 min, FIG. 2d) is “only minor effects”. In addition, the “time in center in the open field” value in series [5] (10 mg/kg) is given as “decreased time in center”. Moreover, the “time spent in center (TIC) in the open field” value in series [5] is given as “did not significantly increase”. Further, the “adverse effects (tolerability)” value in series [6] is “no observable adverse effects”. In series [7], the “binding affinity for the dopamine (DA) transporter” value is “physiologically-relevant binding affinity”. For the same molecule, the “binding affinity for the serotonin (5-HT) transporter” value in [8] was “physiologically-relevant binding affinity”.

For `Oc1ccc(C2=CCN(C[C@H](O)COCc3ccccc3Cl)CC2)cc1` [MI-17, reference compound], the “immobility times in the TST” value was “dose-dependently increased” in series [3] (2% DMSO vehicle, FIG. 5c) and “dose-dependently increased” in series [3] (55% DMSO vehicle in the oxalate form, FIG. 5d). The distance traveled result in series [4] (beginning at 3 mg/kg but mostly at 10 mg/kg, FIG. 4a) is listed as “dramatically decreased”. For the same molecule, in series [4] (beginning at 3 mg/kg but mostly at 10 mg/kg, FIG. 4b), the resting time result was “dramatically increasing”. Moreover, in series [4] (beginning at 3 mg/kg but mostly at 10 mg/kg, FIG. 4c), the stereotopy time entry is listed as “dramatically decreased”. Besides, the ambulatory time result in [4] (beginning at 3 mg/kg but mostly at 10 mg/kg, FIG. 4d) was “dramatically decreased”.

Take `C[C@@H]([C@@H](O)c1ccc(O)cc1)N1CCC(O)(c2ccccc2)CC1` [traxoprodil]: the oral bioavailability in series [9] (extensive metabolizers (EM)) is given as 23-62%. In series [9] (setting [10]), the adverse effects entry was “no observable adverse effects”, the “sustained levels in the cerebral spinal fluid” value was > 200 ng/mL and the “sustained levels in the plasma” value was > 200 ng/mL. Besides, the oral bioavailability entry in series [9] (poor metabolizers (PM)) was “approx. 80%”.

The values above are taken from patent US20120322824A1, “Cocaine Antagonist/Antidepressant Pharmaceutical Preparations” (priority 2011, published 2012).
